In ChEMBL document CHEMBL4138163, “DMXAA-pyranoxanthone hybrids enhance inhibition activities against human cancer cells with multi-target functions” (Eur J Med Chem, 2018):
Activity calls are given as the source filed them. The rule behind the calls is not given here.

Tests used:
MDA-MB-231 [1] = test: Antiproliferative activity against human MDA-MB-231 cells after 24 hrs by MTT assay; assay type: functional, cell-based; details: MDA-MB-231, 24 h
MCF7 [2] = test: Antiproliferative activity against human MCF7 cells after 24 hrs by MTT assay; assay type: functional, cell-based; details: MCF7, 24 h
HepG2 [3] = test: Antiproliferative activity against human HepG2 cells after 24 hrs by MTT assay; assay type: functional, cell-based; details: HepG2, 24 h
K562 [4] = test: Antiproliferative activity against human K562 cells after 24 hrs by MTT assay; assay type: functional, cell-based; details: K562, 24 h
L02 [5] = test: Antiproliferative activity against human HL-7702 cells after 24 hrs by MTT assay; assay type: functional, cell-based; details: L02, 24 h
NIH3T3 [6] = test: Antiproliferative activity against mouse NIH/3T3 cells after 24 hrs by MTT assay; assay type: cell-based
NIH3T3 [7] = test: Antiproliferative activity against mouse NIH/3T3 cells after 48 hrs by MTT assay; assay type: cell-based; details: nih3t3, 48 h
L02 [8] = test: Antiproliferative activity against human HL-7702 cells after 48 hrs by MTT assay; assay type: functional, cell-based; details: L02, 48 h
[9] = Selectivity ratio of IC50 for human HL-7702 cells to IC50 for human HepG2 cells; assay type: functional
HepG2 [10] = test: Induction of apoptosis in human HepG2 cells assessed as early apoptotic cells at 0.2 uM after 24 hrs by annexin-V/propidium iodide staining-based flow cytometric method relative to control; assay type: functional
HepG2 [11] = test: Induction of apoptosis in human HepG2 cells assessed as late apoptotic cells at 0.2 uM after 24 hrs by annexin-V/propidium iodide staining-based flow cytometric method relative to control; assay type: functional
HepG2 [12] = test: Induction of apoptosis in human HepG2 cells assessed as increase in cleaved caspase-3 levels at 0.2 uM after 24 hrs by Western blot method; assay type: functional, cell-based
HepG2 [13] = test: Induction of apoptosis in human HepG2 cells assessed as increase in cleaved caspase-9 levels at 0.2 uM after 24 hrs by Western blot method; assay type: functional, cell-based
HepG2 [14] = test: Induction of apoptosis in human HepG2 cells assessed as increase in cleaved PARP levels at 0.2 uM after 24 hrs by Western blot method; assay type: functional, cell-based
[15] = target: T1, Tumour suppressor p53/oncoprotein Mdm2 (Homo sapiens) (UniProt P04637+Q00987); test: Inhibition of MDM2/p53 interaction in human HepG2 cells assessed as increase in p53 to MDM2 ratio at 0.2 uM after 24 hrs by Western blot method (reference value: 0.083); assay type: cell-based
HepG2 [16] = test: Induction of apoptosis in human HepG2 cells assessed as downregulation of Bcl-xL expression at 0.2 uM after 24 hrs by Western blot method; assay type: functional, cell-based
HepG2 [17] = test: Induction of apoptosis in human HepG2 cells assessed as upregulation of Bid expression at 0.2 uM after 24 hrs by Western blot method; assay type: functional, cell-based
HepG2 [18] = test: Induction of apoptosis in human HepG2 cells assessed as ratio of Bax/Bcl-2 at 0.2 uM after 24 hrs by Western blot method (reference value: 0.23); assay type: functional
[19] = Half life in cell culture medium at 10 uM by HPLC method; assay type: physicochemical
[20] = Half life in Kunming mouse plasma at 10 uM by HPLC method; assay type: ADME, cell-free
HepG2 [21] = test: Cell cycle arrest in human HepG2 cells assessed as accumulation at S phase at 0.2 uM after 28 hrs by propidium iodide staining-based flow cytometric method relative to control
MDA-MB-231 [22] = test: Antiproliferative activity against human MDA-MB-231 cells co-treated with DMXAA at 1:1 molar ratio after 24 hrs by MTT assay; assay type: functional, cell-based; details: MDA-MB-231, 24 h
MCF7 [23] = test: Antiproliferative activity against human MCF7 cells co-treated with DMXAA at 1:1 molar ratio after 24 hrs by MTT assay; assay type: functional, cell-based; details: MCF7, 24 h
HepG2 [24] = test: Antiproliferative activity against human HepG2 cells co-treated with DMXAA at 1:1 molar ratio after 24 hrs by MTT assay; assay type: functional, cell-based; details: HepG2, 24 h
K562 [25] = test: Antiproliferative activity against human K562 cells co-treated with DMXAA at 1:1 molar ratio after 24 hrs by MTT assay; assay type: functional, cell-based; details: K562, 24 h
HepG2 [26] = test: Induction of apoptosis in human HepG2 cells assessed as late apoptotic cells co-treated with pyranoxanthone at 1:1 molar ratio after 24 hrs by annexin-V/propidium iodide staining-based flow cytometric method relative to control; assay type: functional
HepG2 [27] = test: Induction of apoptosis in human HepG2 cells assessed as late apoptotic cells co-treated with DMXAA at 1:1 molar ratio after 24 hrs by annexin-V/propidium iodide staining-based flow cytometric method relative to control; assay type: functional
HepG2 [28] = test: Induction of apoptosis in human HepG2 cells assessed as total apoptosis rate at 0.2 uM after 24 hrs by annexin-V/propidium iodide staining-based flow cytometric method relative to control; assay type: functional
HepG2 [29] = test: Induction of apoptosis in human HepG2 cells assessed as necrotic cells at 0.2 uM after 24 hrs by annexin-V/propidium iodide staining-based flow cytometric method relative to control; assay type: functional
HepG2 [30] = test: Induction of apoptosis in human HepG2 cells assessed as increase in cleaved caspase-3 levels co-treated with DMXAA at 1:1 molar ratio after 24 hrs by Western blot method; assay type: functional, cell-based
HepG2 [31] = test: Induction of apoptosis in human HepG2 cells assessed as increase in cleaved caspase-9 levels co-treated with DMXAA at 1:1 molar ratio after 24 hrs by Western blot method; assay type: functional, cell-based
HepG2 [32] = test: Induction of apoptosis in human HepG2 cells assessed as increase in cleaved PARP levels co-treated with DMXAA at 1:1 molar ratio after 24 hrs by Western blot method; assay type: functional, cell-based
[33] = target: T1, Tumour suppressor p53/oncoprotein Mdm2 (Homo sapiens); test: Inhibition of MDM2/p53 interaction in human HepG2 cells assessed as increase in p53 to MDM2 ratio co-treated with DMXAA at 1:1 molar ratio after 24 hrs by Western blot method (reference value: 0.083); assay type: cell-based
HepG2 [34] = test: Induction of apoptosis in human HepG2 cells assessed as downregulation of Bcl-xL expression co-treated with DMXAA at 1:1 molar ratio after 24 hrs by Western blot method; assay type: functional, cell-based
HepG2 [35] = test: Induction of apoptosis in human HepG2 cells assessed as upregulation of Bid expression co-treated with DMXAA at 1:1 molar ratio after 24 hrs by Western blot method; assay type: functional, cell-based
HepG2 [36] = test: Induction of apoptosis in human HepG2 cells assessed as ratio of Bax/Bcl-2 co-treated with DMXAA at 1:1 molar ratio after 24 hrs by Western blot method (reference value: 0.23); assay type: functional
HepG2 [37] = test: Cell cycle arrest in human HepG2 cells assessed as accumulation at S phase co-treated with DMXAA at 1:1 molar ratio after 28 hrs by propidium iodide staining-based flow cytometric method
MCF7 [38] = test: Antiproliferative activity against human MCF7 cells co-treated with pyranoxanthone at 1:1 molar ratio after 24 hrs by MTT assay; assay type: functional, cell-based; details: MCF7, 24 h
MDA-MB-231 [39] = test: Antiproliferative activity against human MDA-MB-231 cells co-treated with pyranoxanthone at 1:1 molar ratio after 24 hrs by MTT assay; assay type: functional, cell-based; details: MDA-MB-231, 24 h
HepG2 [40] = test: Antiproliferative activity against human HepG2 cells co-treated with pyranoxanthone at 1:1 molar ratio after 24 hrs by MTT assay; assay type: functional, cell-based; details: HepG2, 24 h
K562 [41] = test: Antiproliferative activity against human K562 cells co-treated with pyranoxanthone at 1:1 molar ratio after 24 hrs by MTT assay; assay type: functional, cell-based; details: K562, 24 h
HepG2 [42] = test: Induction of apoptosis in human HepG2 cells assessed as early apoptotic cells co-treated with pyranoxanthone at 1:1 molar ratio after 24 hrs by annexin-V/propidium iodide staining-based flow cytometric method relative to control; assay type: functional
HepG2 [43] = test: Induction of apoptosis in human HepG2 cells assessed as early apoptotic cells co-treated with DMXAA at 1:1 molar ratio after 24 hrs by annexin-V/propidium iodide staining-based flow cytometric method relative to control; assay type: functional
HepG2 [44] = test: Induction of apoptosis in human HepG2 cells assessed as increase in cleaved caspase-3 levels co-treated with pyranoxanthone at 1:1 molar ratio after 24 hrs by Western blot method; assay type: functional, cell-based
HepG2 [45] = test: Induction of apoptosis in human HepG2 cells assessed as increase in cleaved caspase-9 levels co-treated with pyranoxanthone at 1:1 molar ratio after 24 hrs by Western blot method; assay type: functional, cell-based
HepG2 [46] = test: Induction of apoptosis in human HepG2 cells assessed as increase in cleaved PARP levels co-treated with pyranoxanthone at 1:1 molar ratio after 24 hrs by Western blot method; assay type: functional, cell-based
[47] = target: T1, Tumour suppressor p53/oncoprotein Mdm2 (Homo sapiens); test: Inhibition of MDM2/p53 interaction in human HepG2 cells assessed as increase in p53 to MDM2 ratio co-treated with pyranoxanthone at 1:1 molar ratio after 24 hrs by Western blot method (reference value: 0.083); assay type: cell-based
HepG2 [48] = test: Induction of apoptosis in human HepG2 cells assessed as downregulation of Bcl-xL expression co-treated with pyranoxanthone at 1:1 molar ratio after 24 hrs by Western blot method; assay type: functional, cell-based
HepG2 [49] = test: Induction of apoptosis in human HepG2 cells assessed as upregulation of Bid expression co-treated with pyranoxanthone at 1:1 molar ratio after 24 hrs by Western blot method; assay type: functional, cell-based
HepG2 [50] = test: Induction of apoptosis in human HepG2 cells assessed as ratio of Bax/Bcl-2 co-treated with pyranoxanthone at 1:1 molar ratio after 24 hrs by Western blot method (reference value: 0.23); assay type: functional
HepG2 [51] = test: Cell cycle arrest in human HepG2 cells assessed as accumulation at S phase co-treated with pyranoxanthone at 1:1 molar ratio after 28 hrs by propidium iodide staining-based flow cytometric method

T1 sequence (P04637 whole entry, looked up): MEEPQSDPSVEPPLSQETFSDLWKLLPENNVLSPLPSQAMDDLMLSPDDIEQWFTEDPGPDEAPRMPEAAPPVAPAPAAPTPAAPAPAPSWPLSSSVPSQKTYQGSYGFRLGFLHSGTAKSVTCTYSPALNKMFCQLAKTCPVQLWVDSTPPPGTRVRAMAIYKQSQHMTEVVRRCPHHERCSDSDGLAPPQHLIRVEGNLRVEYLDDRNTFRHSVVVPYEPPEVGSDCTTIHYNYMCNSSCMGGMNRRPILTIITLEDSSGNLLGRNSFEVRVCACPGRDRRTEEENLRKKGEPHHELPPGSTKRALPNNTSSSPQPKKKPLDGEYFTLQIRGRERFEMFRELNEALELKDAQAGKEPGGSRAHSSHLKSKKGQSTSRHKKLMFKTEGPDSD
T1 sequence (Q00987 whole entry, looked up): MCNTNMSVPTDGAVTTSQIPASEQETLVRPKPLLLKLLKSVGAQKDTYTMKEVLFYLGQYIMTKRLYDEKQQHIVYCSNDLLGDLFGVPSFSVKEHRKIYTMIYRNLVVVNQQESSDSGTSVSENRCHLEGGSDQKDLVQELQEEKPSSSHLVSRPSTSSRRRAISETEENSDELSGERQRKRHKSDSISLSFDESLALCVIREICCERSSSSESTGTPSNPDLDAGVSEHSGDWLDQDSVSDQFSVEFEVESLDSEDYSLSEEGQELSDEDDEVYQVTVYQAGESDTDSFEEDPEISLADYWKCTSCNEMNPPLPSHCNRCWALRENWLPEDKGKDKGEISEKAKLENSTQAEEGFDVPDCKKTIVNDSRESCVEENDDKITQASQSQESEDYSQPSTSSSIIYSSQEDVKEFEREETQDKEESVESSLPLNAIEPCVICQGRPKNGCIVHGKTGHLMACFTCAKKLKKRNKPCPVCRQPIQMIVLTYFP

Compound	IC50 (MDA-MB-231 [1])	IC50 (MCF7 [2])	IC50 (HepG2 [3])	IC50 (K562 [4])	fold change (FC) [15]	IC50 (L02 [5])	Activity (HepG2 [10])	Activity (HepG2 [11])	Activity (HepG2 [12])	Activity (HepG2 [13])	Activity (HepG2 [14])	Activity (HepG2 [16])	Activity (HepG2 [17])	Ratio (HepG2 [18])	Activity (HepG2 [21])	further results
Cc1ccc2c(=O)c3cccc(CC(=O)OCCCCCOc4c5c(cc6c(=O)c7ccccc7oc46)CCC(C)(C)O5)c3oc2c1C	11.2 µM	8.72 µM	1.53 µM	15 µM												
Cc1ccc2c(=O)c3cccc(CC(=O)OCCCOc4c5c(cc6c(=O)c7ccccc7oc46)CCC(C)(C)O5)c3oc2c1C	32.2 µM	51.7 µM	32.7 µM	32.3 µM												
Cc1ccc2c(=O)c3cccc(CC(=O)OCCCCOc4c5c(cc6c(=O)c7ccccc7oc46)CCC(C)(C)O5)c3oc2c1C	19.6 µM	33.2 µM	11.9 µM	20.6 µM												
Cc1ccc2c(=O)c3cccc(CC(=O)O)c3oc2c1C [VADIMEZAN]						101 µM	13%	7%	Active	Active	Active				Active	IC50 (MCF7 [38]): 11.9 µM; IC50 (MDA-MB-231 [39]): 12.1 µM; IC50 (HepG2 [40]): 21.2 µM; IC50 (K562 [41]): 19.1 µM; IC50 (NIH3T3 [6]; Mus musculus, NIH3T3, 24 h): 67.8 µM; Activity (HepG2 [42]): 15%; Activity (HepG2 [43]): 15%; Activity (HepG2 [44]): Active; Activity (HepG2 [45]): Active; Activity (HepG2 [46]): Active; fold change (FC) [47]: 0.67; Activity (HepG2 [48]): Active; Activity (HepG2 [49]): Active; Ratio (HepG2 [50]): 0.58; Activity (HepG2 [51]): Active

Continued, in another order:

IC50 (MDA-MB-231 [1])	IC50 (MCF7 [2])	IC50 (HepG2 [3])	IC50 (K562 [4])	fold change (FC) [15]	Compound	IC50 (L02 [5])	Activity (HepG2 [10])	Activity (HepG2 [11])	Activity (HepG2 [12])	Activity (HepG2 [13])	Activity (HepG2 [14])	Activity (HepG2 [16])	Activity (HepG2 [17])	Ratio (HepG2 [18])	Activity (HepG2 [21])	further results
1.13 µM	0.534 µM	0.216 µM	9.13 µM	0.81	Cc1ccc2c(=O)c3cccc(CC(=O)OCCCCCCOc4c5c(cc6c(=O)c7ccccc7oc46)CCC(C)(C)O5)c3oc2c1C	378 to 452 µM	38%	42%	Active	Active	Active	Active	Active	0.87	90%	Activity (NIH3T3 [6]; mouse, nih3t3, 24 h): Non-Toxic; Activity (NIH3T3 [7]): Non-Toxic; IC50 (L02 [8]): 293 to 352 µM; Ratio IC50 [9]: 2092; half-life at 10 µM [19]: 24.8 h; half-life at 10 µM [20]: 4.2 h
59.3 µM	102 µM	40.3 µM	27.8 µM	0.19	CC1(C)CCc2cc3c(=O)c4ccccc4oc3c(O)c2O1 [DIHYDRO-12-HYDROXY-2,2-DIMETHYL-2H,6H-PYRANO[3,2-B]XANTHEN-6-ONE]				Active	Active	Active	Active	Active	0.36	Active	IC50 (MDA-MB-231 [22]): 12.1 µM; IC50 (MCF7 [23]): 11.9 µM; IC50 (HepG2 [24]): 21.2 µM; IC50 (K562 [25]): 19.1 µM; Activity (HepG2 [26]): 46%; Activity (HepG2 [27]): 46%; Activity (HepG2 [28]): <10%; Activity (HepG2 [29]): <10%; Activity (HepG2 [30]): Active; Activity (HepG2 [31]): Active; Activity (HepG2 [32]): Active; fold change (FC) [33]: 0.67; Activity (HepG2 [34]): Active; Activity (HepG2 [35]): Active; Ratio (HepG2 [36]): 0.58; Activity (HepG2 [37]): Active
